ChEMBL document CHEMBL2034833, “Synthesis of chalcone-amidobenzothiazole conjugates as antimitotic and apoptotic inducing agents” (Bioorg Med Chem, 2012)
The source made the active and inactive calls. The calls are words filed in the database; no cut-off is given here.

Key:
[1] = test system: UO-31; test: Growth inhibition of human UO31 cells after 48 hrs by sulforhodamine B assay; assay type: functional; settings: UO-31, 48 h
[2] = test system: EKVX; test: Growth inhibition of human EKVX cells after 48 hrs by sulforhodamine B assay; assay type: functional
[3] = test system: A549; test: Cell cycle arrest in human A549 cells assessed as cell accumulation at subG1 phase at 4 uM after 48 hrs by propidium iodide staining based flow cytometry (reference value: […]); assay type: functional
[4] = test system: SK-MEL-2; test: Growth inhibition of human SK-MEL-2 cells after 48 hrs by sulforhodamine B assay; assay type: functional; settings: SK-MEL-2, 48 h
[5] = test system: A549; test: Cell cycle arrest in human A549 cells assessed as cell accumulation at S phase at 4 uM after 48 hrs by propidium iodide staining based flow cytometry (reference value: […]); assay type: functional
[6] = test system: A549; test: Cell cycle arrest in human A549 cells assessed as cell accumulation at subG1 phase at 2 uM after 48 hrs by propidium iodide staining based flow cytometry (reference value: […]); assay type: functional
[7] = test system: HOP-62; test: Growth inhibition of human HOP62 cells after 48 hrs by sulforhodamine B assay; assay type: functional; settings: HOP-62, 48 h
[8] = test system: MDA-MB-231; test: Growth inhibition of human MDA-MB-231 cells after 48 hrs by sulforhodamine B assay; assay type: functional; settings: MDA-MB-231, 48 h
[9] = test system: TK-10; test: Growth inhibition of human TK10 cells after 48 hrs by sulforhodamine B assay; assay type: functional; settings: TK-10, 48 h
[10] = test system: NCI-H522; test: Growth inhibition of human NCI-H522 cells after 48 hrs by sulforhodamine B assay; assay type: functional; settings: NCI-H522, 48 h
[11] = test system: HOP-92; test: Growth inhibition of human HOP92 cells after 48 hrs by sulforhodamine B assay; assay type: functional; settings: HOP-92, 48 h
[12] = test system: SF-295; test: Growth inhibition of human SF295 cells after 48 hrs by sulforhodamine B assay; assay type: functional; settings: SF-295, 48 h
[13] = test system: A498; test: Growth inhibition of human A498 cells after 48 hrs by sulforhodamine B assay; assay type: functional; settings: A498, 48 h
[14] = Inhibition of tubulin polymerization after 1 hr by fluorescence assay
[15] = Inhibition of tubulin polymerization at 3 uM after 1 hr by fluorescence assay
[16] = test system: NCI-H226; test: Growth inhibition of human NCI-H226 cells after 48 hrs by sulforhodamine B assay; assay type: functional; settings: NCI-H226, 48 h
[17] = test system: SK-OV-3; test: Growth inhibition of human SKOV3 cells after 48 hrs by sulforhodamine B assay; assay type: functional; settings: SK-OV-3, 48 h
[18] = test system: A549; test: Induction of apoptosis in human A549 cells assessed as late apoptotic cells at 2 uM after 48 hrs by annexin-V FITC/propidium iodide staining based FACS analysis; assay type: functional
[19] = test system: SF-539; test: Growth inhibition of human SF539 cells after 48 hrs by sulforhodamine B assay; assay type: functional; settings: SF-539, 48 h
[20] = test system: NCI/ADR-RES; test: Growth inhibition of human NCI/ADR-RES cells after 48 hrs by sulforhodamine B assay; assay type: functional
[21] = test system: A549; test: Induction of apoptosis in human A549 cells assessed as early apoptotic cells at 2 uM after 48 hrs by annexin-V FITC/propidium iodide staining based FACS analysis; assay type: functional
[22] = test system: DU-145; test: Growth inhibition of human DU145 cells after 48 hrs by sulforhodamine B assay; assay type: functional; settings: DU-145, 48 h
[23] = test system: Malme-3M; test: Growth inhibition of human MALME-3M cells after 48 hrs by sulforhodamine B assay; assay type: functional
[24] = test system: SN12C; test: Growth inhibition of human SN12C cells after 48 hrs by sulforhodamine B assay; assay type: functional
[25] = target: Tubulin (Homo sapiens) (UniProt P68371+Q9H4B7+P0DPH7+P68366+Q13509+Q71U36+P04350+Q3ZCM7+P07437+P68363+Q9BQE3+Q6PEY2+Q13885+Q9BVA1+Q9BUF5); test: Inhibition of tubulin polymerization in human A549 cells assessed as disrupted microtubule organization at 2 uM after 48 hrs by immunohistochemistry analysis; assay type: cell-based
[26] = test system: NCI-H322M; test: Growth inhibition of human NCI-H322M cells after 48 hrs by sulforhodamine B assay; assay type: functional
[27] = test system: A549; test: Induction of apoptosis in human A549 cells assessed as necrotic cells at 2 uM after 48 hrs by annexin-V FITC/propidium iodide staining based FACS analysis; assay type: functional
[28] = test system: U-251; test: Growth inhibition of human U251 cells after 48 hrs by sulforhodamine B assay; assay type: functional; settings: U-251, 48 h
[29] = test system: CCRF-CEM; test: Growth inhibition of human CCRF-CEM cells after 48 hrs by sulforhodamine B assay; assay type: functional
[30] = test system: OVCAR-5; test: Growth inhibition of human OVCAR5 cells after 48 hrs by sulforhodamine B assay; assay type: functional; settings: OVCAR-5, 48 h
[31] = test system: 786-0; test: Growth inhibition of human 786-0 cells after 48 hrs by sulforhodamine B assay; assay type: functional; settings: 786-0, 48 h
[32] = test system: M14; test: Growth inhibition of human M14 cells after 48 hrs by sulforhodamine B assay; assay type: functional; settings: M14, 48 h
[33] = test system: HT-29; test: Growth inhibition of human HT-29 cells after 48 hrs by sulforhodamine B assay; assay type: functional; settings: HT-29, 48 h
[34] = test system: OVCAR-8; test: Growth inhibition of human OVCAR8 cells after 48 hrs by sulforhodamine B assay; assay type: functional; settings: OVCAR-8, 48 h
[35] = test system: NCI-H460; test: Growth inhibition of human NCI-H460 cells after 48 hrs by sulforhodamine B assay; assay type: functional; settings: NCI-H460, 48 h
[36] = test system: T47D; test: Growth inhibition of human T47D cells after 48 hrs by sulforhodamine B assay; assay type: functional
[37] = test system: SF-268; test: Growth inhibition of human SF268 cells after 48 hrs by sulforhodamine B assay; assay type: functional; settings: SF-268, 48 h
[38] = test system: ACHN; test: Cytotoxicity against human ACHN cells after 48 hrs by MTT assay; assay type: functional, cell-based
[39] = test system: RPMI-8226; test: Growth inhibition of human RPMI8226 cells after 48 hrs by sulforhodamine B assay; assay type: functional; settings: RPMI-8226, 48 h
[40] = test system: NCI-H23; test: Growth inhibition of human NCI-H23 cells after 48 hrs by sulforhodamine B assay; assay type: functional; settings: NCI-H23, 48 h

- GI50 [4]: 4.97 µM
- GI50 [8]: 2.01 µM
- GI50 [10]: 0.67 µM
- IC50 [14]: 5.2 µM
- inhibition [15]: 63.1%
- GI50 [16]: 3.35 µM
- GI50 [17]: 2.16 µM
- GI50 [22]: 1.56 µM
- inhibition [25]: Active
- GI50 [26]: 2.77 µM
- GI50 [28]: 0.7 µM
- GI50 [29]: 2.5 µM
- GI50 [30]: 4.76 µM
- GI50 [31]: 2.26 µM
- GI50 [33]: 3.66 µM
- GI50 [34]: 1.54 µM
- GI50 [35]: 2.43 µM
- GI50 [36]: 3.08 µM
- GI50 [39]: 2.02 µM
- GI50 [40]: 2.15 µM
Compound: COc1ccc(/C=C/C(=O)c2cc(OC)c(OC)c(OC)c2)cc1OCC(=O)Nc1nc2ccc(OC(F)(F)F)cc2s1
- GI50 [1]: 1.61 µM
- GI50 [2]: 5.11 µM
- Activity [3]: 3.21%
- Activity [5]: 4.95%
- Activity [6]: 4.5%
- GI50 [7]: 2.12 µM
- GI50 [9]: 2.08 µM
- GI50 [11]: 2.14 µM
- GI50 [12]: 2.21 µM
- GI50 [13]: 7.4 µM
- Activity [18]: 74.9%
- GI50 [19]: 0.3 µM
- GI50 [20]: 0.49 µM
- Activity [21]: 1.3%
- GI50 [23]: 2.69 µM
- GI50 [24]: 1.74 µM
- Activity [27]: 6.2%
- GI50 [32]: 1.72 µM
- GI50 [37]: 1.2 µM
- IC50 [38]: 1.73 µM
